Molecular target: T1, human TRPV4 (Homo sapiens, UniProt Q9HBA0)
T1 construct: expressed in transfected cells; host or cells: HEK-293-MSR-II cells transduced with 1% BacMam virus
Assay: Ligand-gated assay (Fluo4 calcium, FLIPR; inhibition of agonist-induced activation)
Type: cell-based
Settings: HEK-293-MSR-II cells transduced with BacMam human TRPV4; agonist at EC80
In short: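 Agonist (EC80) response read on FLIPR as Fluo-4 (2 uM) fluorescence after 10-min room-temperature compound exposure in HBSS/HEPES pH 7.4 with 0.01% Chaps. Cells: HEK-293-MSR-II expressing human TRPV4 via BacMam; output is IC50 of inhibition.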

T1 sequence (Q9HBA0 whole entry): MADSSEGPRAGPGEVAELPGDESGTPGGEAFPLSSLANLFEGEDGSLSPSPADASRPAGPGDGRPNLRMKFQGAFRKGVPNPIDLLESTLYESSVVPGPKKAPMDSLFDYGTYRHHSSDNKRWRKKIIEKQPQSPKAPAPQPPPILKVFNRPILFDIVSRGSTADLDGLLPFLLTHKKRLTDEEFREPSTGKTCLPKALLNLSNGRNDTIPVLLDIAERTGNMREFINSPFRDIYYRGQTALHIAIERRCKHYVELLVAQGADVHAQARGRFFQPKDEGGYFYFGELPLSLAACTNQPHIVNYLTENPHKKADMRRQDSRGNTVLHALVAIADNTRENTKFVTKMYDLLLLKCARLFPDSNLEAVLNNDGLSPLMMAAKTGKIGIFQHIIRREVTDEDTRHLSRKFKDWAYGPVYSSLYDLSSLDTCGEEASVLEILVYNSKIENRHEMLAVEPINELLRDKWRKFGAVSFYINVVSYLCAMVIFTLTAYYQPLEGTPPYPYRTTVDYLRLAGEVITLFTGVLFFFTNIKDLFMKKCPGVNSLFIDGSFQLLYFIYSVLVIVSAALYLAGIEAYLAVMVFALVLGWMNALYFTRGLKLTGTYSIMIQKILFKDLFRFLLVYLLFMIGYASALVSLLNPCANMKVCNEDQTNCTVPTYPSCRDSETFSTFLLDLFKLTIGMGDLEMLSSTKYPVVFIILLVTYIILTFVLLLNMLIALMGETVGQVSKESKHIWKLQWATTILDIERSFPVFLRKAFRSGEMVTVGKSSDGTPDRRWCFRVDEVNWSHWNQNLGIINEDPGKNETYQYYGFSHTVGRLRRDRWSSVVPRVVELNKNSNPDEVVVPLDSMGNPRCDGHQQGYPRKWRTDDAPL

Row | IC50 | SMILES
1 | 0.1 to 10 nM | N#Cc1cc(Cl)cc(-n2cc(CN3C[C@@]4(CCC[C@H](Cn5cnc6ccc(C#N)cc65)C4)OC3=O)nn2)c1 [Example 99, 1-[((5S,7S)-3-{[1-(3-chloro-5-cyanophenyl)-1H-1,2,3-triazol-4-yl]methyl}-2-oxo-1-oxa-3-azaspiro[4.5]dec-7-yl)methyl]-1H-benzimidazole-6-carbonitrile]
2 | 0.1 to 10 nM | N#Cc1ccc2ncn(C[C@H]3CCC[C@]4(C3)CN(Cc3cn(-c5ccnc(C(F)(F)F)c5)nn3)C(=O)O4)c2c1 [Example 100, 1-{[(5S,7S)-2-oxo-3-({1-[2-(trifluoromethyl)-4-pyridinyl]-1H-1,2,3-triazol-4-yl}methyl)-1-oxa-3-azaspiro[4.5]dec-7-yl]methyl}-1H-benzimidazole-6-carbonitrile]
3 | 10 to 50 nM | N#Cc1ccc2ncn(C[C@H]3CCC[C@]4(C3)CN(Cc3cn(-c5cc(F)cc(F)c5)nn3)C(=O)O4)c2c1 [Example 101, 1-[((5S,7S)-3-{[1-(3,5-difluorophenyl)-1H-1,2,3-triazol-4-yl]methyl}-2-oxo-1-oxa-3-azaspiro[4.5]dec-7-yl)methyl]-1H-benzimidazole-6-carbonitrile]
4 | 0.1 to 10 nM | N#Cc1ccc2ncn(C[C@H]3CCC[C@]4(C3)CN(Cc3cn(-c5ccc(C(F)(F)F)cc5)nn3)C(=O)O4)c2c1 [Example 102, 1-{[(5S,7S)-2-oxo-3-({1-[4-(trifluoromethyl)phenyl]-1H-1,2,3-triazol-4-yl}methyl)-1-oxa-3-azaspiro[4.5]dec-7-yl]methyl}-1H-benzimidazole-6-carbonitrile]
5 | 50 to 500 nM | CC(C)n1cc(CN2C[C@@]3(CCC[C@](C)(Cn4cnc5ccc(C#N)cc54)C3)OC2=O)nn1 [Example 104, 1-[((5S,7S)-7-methyl-3-{[1-(1-methylethyl)-1H-1,2,3-triazol-4-yl]methyl}-2-oxo-1-oxa-3-azaspiro[4.5]dec-7-yl)methyl]-1H-benzimidazole-6-carbonitrile]
6 | 10 to 50 nM | C[C@]1(Cn2cnc3ccc(C#N)cc32)CCC[C@]2(CN(Cc3cn(-c4ccccc4)nn3)C(=O)O2)C1 [Example 105, 1-({(5R,7S)-7-methyl-2-oxo-3-[(1-phenyl-1H-1,2,3-triazol-4-yl)methyl]-1-oxa-3-azaspiro[4.5]dec-7-yl}methyl)-1H benzimidazole-6-carbonitrile]
7 | 10 to 50 nM | N#Cc1ccc2ncn(C[C@H]3CCC[C@]4(C3)CN(Cc3cn(-c5cncc(Cl)c5)nn3)C(=O)O4)c2c1 [Example 106, 1-[((5S,7S)-3-{[1-(5-chloro-3-pyridinyl)-1H-1,2,3-triazol-4-yl]methyl}-2-oxo-1-oxa-3-azaspiro[4.5]dec-7-yl)methyl]-1H-benzimidazole-6-carbonitrile]
8 | 0.1 to 10 nM | CC(C)(C#N)c1noc(N2C[C@@]3(CCC[C@](C)(Cn4cnc5ccc(C#N)cc54)C3)OC2=O)c1Cl [Example 107, 1-(((5S,7S)-3-(4-chloro-3-(2-cyanopropan-2-yl)isoxazol-5-yl)-7-methyl-2-oxo-1-oxa-3-azaspiro[4.5]decan-7-yl)methyl)-1H-benzo[d]imidazole-6-carbonitrile]
9 | 0.1 to 10 nM | CC(C)(C)c1noc(N2C[C@@]3(CCC[C@](C)(Cn4cnc5ccc(C#N)cc54)C3)OC2=O)c1Br [Example 108, 1-({(5S,7S)-3-[4-bromo-3-(1,1-dimethylethyl)-5-isoxazolyl]-7-methyl-2-oxo-1-oxa-3-azaspiro[4.5]dec-7-yl}methyl)-1H-benzimidazole-6-carbonitrile]
10 | 50 to 500 nM | COc1ncccc1N1C[C@@]2(CCC[C@](C)(Cn3cnc4ccc(C#N)cc43)C2)OC1=O [Example 109, 1-[{(5S,7S)-7-methyl-3-[2-(methyloxy)-3-pyridinyl]-2-oxo-1-oxa-3-azaspiro[4.5]dec-7-yl}methyl]-1H-benzimidazole-6-carbonitrile]
11 | 0.1 to 10 nM | COc1ccc(N2C[C@@]3(CCC[C@](C)(Cn4cnc5ccc(C#N)cc54)C3)OC2=O)c(OC)n1 [Example 110, 1-({(5S,7S)-3-[2,6-bis(methyloxy)-3-pyridinyl]-7-methyl-2-oxo-1-oxa-3-azaspiro[4.5]dec-7-yl}methyl)-1H-benzimidazole-6-carbonitrile]
12 | 10 to 50 nM | COc1cc(C)c(N2C[C@@]3(CCC[C@H](Cn4cnc5ccc(C#N)cc54)C3)OC2=O)cn1 [Example 111, 1-({(5S,7S)-3-[4-methyl-6-(methyloxy)-3-pyridinyl]-2-oxo-1-oxa-3-azaspiro[4.5]dec-7-yl}methyl)-1H-benzimidazole-6-carbonitrile]
13 | 0.1 to 10 nM | C[C@]1(Cn2cnc3ccc(C#N)cc32)CCC[C@@]2(CN(c3ncc(Cl)cc3Cl)C(=O)O2)C1 [Example 112, 1-(((7S)-3-(3,5-dichloropyridin-2-yl)-7-methyl-2-oxo-1-oxa-3-azaspiro[4.5]decan-7-yl)methyl)-1H-benzo[d]imidazole-6-carbonitrile]
14 | 10 to 50 nM | CCOc1ncc(N2C[C@@]3(CCC[C@](C)(Cn4cnc5ccc(C#N)cc54)C3)OC2=O)cn1 [Example 113, 1-(((5S,7S)-3-(2-ethoxypyrimidin-5-yl)-7-methyl-2-oxo-1-oxa-3-azaspiro[4.5]decan-7-yl)methyl)-1H-benzo[d]imidazole-6-carbonitrile]
15 | 0.1 to 10 nM | C[C@]1(Cn2cnc3ccc(C#N)cc32)CCC[C@@]2(CN(c3ncc(Cl)cc3F)C(=O)O2)C1 [Example 114, 1-(((5S,7S)-3-(5-chloro-3-fluoropyridin-2-yl)-7-methyl-2-oxo-1-oxa-3-azaspiro[4.5]decan-7-yl)methyl)-1H-benzo[d]imidazole-6-carbonitrile]
16 | 0.1 to 10 nM | C[C@]1(Cn2cnc3ccc(C#N)cc32)CCC[C@@]2(CN(c3cnc(C(F)(F)F)cn3)C(=O)O2)C1 [Example 115, 1-(((5S,7S)-7-methyl-2-oxo-3-(5-(trifluoromethyl)pyrazin-2-yl)-1-oxa-3-azaspiro[4.5]decan-7-yl)methyl)-1H-benzo[d]imidazole-6-carbonitrile]
17 | 10 to 50 nM | CC(C)(C)c1ncc(N2C[C@@]3(CCC[C@H](Cn4cnc5ccc(C#N)cc54)C3)OC2=O)cn1 [Example 116, 1-(((5S,7S)-3-(2-(tert-butyl)pyrimidin-5-yl)-2-oxo-1-oxa-3-azaspiro[4.5]decan-7-yl)methyl)-1H-benzo[d]imidazole-6-carbonitrile]
18 | 50 to 500 nM | Cc1cnc(N2C[C@@]3(CCC[C@](C)(Cn4cnc5ccc(C#N)cc54)C3)OC2=O)cn1 [Example 117, 1-(((5S,7S)-7-methyl-3-(5-methylpyrazin-2-yl)-2-oxo-1-oxa-3-azaspiro[4.5]decan-7-yl)methyl)-1H-benzo[d]imidazole-6-carbonitrile]
19 | 0.1 to 10 nM | CCOc1cc(C)c(N2C[C@@]3(CCC[C@](C)(Cn4cnc5ccc(C#N)cc54)C3)OC2=O)cn1 [Example 118, 1-(((5S,7S)-3-(6-ethoxy-4-methylpyridin-3-yl)-7-methyl-2-oxo-1-oxa-3-azaspiro[4.5]decan-7-yl)methyl)-1H-benzo[d]imidazole-6-carbonitrile]
20 | 0.1 to 10 nM | Cc1cc(Cl)ncc1N1C[C@@]2(CCC[C@](C)(Cn3cnc4ccc(C#N)cc43)C2)OC1=O [Example 119, 1-(((5S,7S)-3-(6-chloro-4-methylpyridin-3-yl)-7-methyl-2-oxo-1-oxa-3-azaspiro[4.5]decan-7-yl)methyl)-1H-benzo[d]imidazole-6-carbonitrile]

From patent US9187464B2, “TRPV4 antagonists” (GlaxoSmithKline Intellectual Property (No. 2) Limited, priority 2011, dated 2015)
